From ChEMBL document CHEMBL1143396, “Additivity in the analysis and design of HIV protease inhibitors” (J Med Chem, 2009)

Biological target: Human immunodeficiency virus type 1 protease (Human immunodeficiency virus 1, UniProt Q72874, Q7K)
Assay: Inhibition of HIV1 protease Q7K mutant by FRET method

| SMILES | Ki (read-out: Ki) [nM] | Ki (read-out: pKi (converted)) [nM] |
| --- | --- | --- |
| COc1ccc(S(=O)(=O)N(CC(C)C)C[C@@H](O)[C@H](Cc2ccccc2)Nc2cccc(F)c2C)cc1 | 0.093 | 0.0933 |
| CNC(=O)CCC(=O)N[C@@H](Cc1ccccc1)[C@H](O)CN(C[C@H](C)O)S(=O)(=O)c1cccc(OC)c1 | 764 | 759 |
| CC[C@H](O)CC(=O)N[C@@H](Cc1ccccc1)[C@H](O)CN(CC(C)C)S(=O)(=O)c1ccc2ncsc2c1 | 0.134 | 0.135 |
| CCC(=O)CCC(=O)N[C@@H](Cc1ccccc1)[C@H](O)CN(C[C@H](C)CC)S(=O)(=O)c1ccc2ncsc2c1 | 0.063 | 0.0631 |
| CC[C@H](C)CN(C[C@@H](O)[C@H](Cc1ccccc1)NC(=O)[C@@H]1CN(c2cccc(C(C)=O)c2)C(=O)O1)S(=O)(=O)c1ccc(OC)cc1 | 0.232 | 0.234 |
| COc1cccc(S(=O)(=O)N(C[C@@H](O)[C@H](Cc2ccccc2)NC(=O)c2cccc(C)n2)C[C@@H](C)O)c1 | 12200 | 12300 |
| CCCCCN(C[C@@H](O)[C@H](Cc1ccccc1)NC(=O)CCC(=O)CC)S(=O)(=O)c1ccc(OC)cc1 | 4.17 | 4.17 |
| CCCCCN(C[C@@H](O)[C@H](Cc1ccccc1)NC(=O)C1(C(N)=O)CC1)S(=O)(=O)c1ccc(OC)cc1 | 0.79 | 0.794 |
| CNC(=O)CCC(=O)N[C@@H](Cc1ccccc1)[C@H](O)CN(C[C@@H](C)O)S(=O)(=O)c1cccc(OC)c1 | 1170 | 1170 |
| COc1ccc(S(=O)(=O)N(CC(C)C)C[C@@H](O)[C@H](Cc2ccccc2)NC(=O)/C=C/C(C)=O)cc1 | 0.17 | 0.17 |
| CC[C@@H](C)CN(C[C@@H](O)[C@H](Cc1ccccc1)NC(=O)[C@@H](NC(C)=O)C(C)C)S(=O)(=O)c1ccc(OC)cc1 | 0.033 | 0.0331 |
| Cc1cccc(C(=O)N[C@@H](Cc2ccccc2)[C@H](O)CN(CC2CC2)S(=O)(=O)c2ccco2)n1 | > 10000 |  |
| CC[C@@H](C)CN(C[C@@H](O)[C@H](Cc1ccccc1)NC(=O)c1cccc(O)c1)S(=O)(=O)c1ccc(OC)cc1 | 0.117 | 0.117 |
| Cc1cccc(OS(=O)(=O)N(CC2CC2)C[C@@H](O)[C@H](Cc2ccccc2)NC(=O)C[C@H]2C=CCC2)c1 | 2020 | 2040 |
| CC[C@H](C)CN(C[C@@H](O)[C@H](Cc1ccccc1)NC(=O)c1ccc(O)c(O)c1)S(=O)(=O)c1ccc(OC)cc1 | 0.38 | 0.38 |
| O=C(C[C@H]1C=CCC1)N[C@@H](Cc1ccccc1)[C@H](O)CN(CC1CC1)S(=O)(=O)c1ccco1 | > 10000 |  |
| CCCCCN(C[C@@H](O)[C@H](Cc1ccccc1)NC(=O)[C@@H](NC(C)=O)C(C)C)S(=O)(=O)c1ccc(OC)cc1 | 0.038 | 0.038 |
| CC[C@@H](C)CN(C[C@@H](O)[C@H](Cc1ccccc1)NC(=O)C[C@@H](O)CC)S(=O)(=O)c1ccc(OC)cc1 | 0.34 | 0.339 |
| CCCCCN(C[C@@H](O)[C@H](Cc1ccccc1)NC(=O)C1(C(N)=O)CC1)S(=O)(=O)c1ccc2ncsc2c1 | 0.21 | 0.209 |
| CC(=O)N[C@H](C(=O)N[C@@H](Cc1ccccc1)[C@H](O)CN(CC(C)C)S(=O)(=O)c1ccc2ncsc2c1)C(C)C | 0.099 | 0.1 |
| CNC(=O)CCC(=O)N[C@@H](Cc1ccccc1)[C@H](O)CN(C[C@H](C)O)S(=O)(=O)c1ccco1 | 543 | 537 |

| SMILES | Ki (read-out: Ki) [nM] | Ki (read-out: pKi (converted)) [nM] |
| --- | --- | --- |
| CCCCCN(C[C@@H](O)[C@H](Cc1ccccc1)NC(=O)[C@@H](O)C(C)C)S(=O)(=O)c1ccc2ncsc2c1 | 0.82 | 0.813 |
| COc1cccc(S(=O)(=O)N(Cc2cccs2)C[C@@H](O)[C@H](Cc2ccccc2)NC(=O)[C@H]2CCCC[C@@H]2C)c1 | 582 | 589 |
| COc1ccc(S(=O)(=O)N(CC(C)C)C[C@@H](O)[C@H](Cc2ccccc2)NC(=O)[C@@H](O)C(C)C)cc1 | 1.88 | 1.86 |
| COc1cccc(S(=O)(=O)N(Cc2cccs2)C[C@@H](O)[C@H](Cc2ccccc2)Nc2cc(F)c(F)c(O)c2F)c1 | 515 | 513 |
| Cc1cccc(OS(=O)(=O)N(C[C@@H](O)[C@H](Cc2ccccc2)NC(=O)C[C@H]2C=CCC2)C[C@@H](C)O)c1 | > 10000 |  |
| CCCCCN(C[C@@H](O)[C@H](Cc1ccccc1)NC(=O)C[C@@H](O)CC)S(=O)(=O)c1ccc2ncsc2c1 | 0.7 | 0.708 |
| CCCCCN(C[C@@H](O)[C@H](Cc1ccccc1)NC(=O)c1cccc(O)c1)S(=O)(=O)c1ccc2ncsc2c1 | 0.309 | 0.309 |
| COc1ccc(S(=O)(=O)N(CC(C)C)C[C@@H](O)[C@H](Cc2ccccc2)NC(=O)[C@@H](NC(C)=O)C(C)C)cc1 | 0.084 | 0.0832 |
| CC(C)CN(C[C@@H](O)[C@H](Cc1ccccc1)NC(=O)C1(C(N)=O)CC1)S(=O)(=O)c1ccc2ncsc2c1 | 0.115 | 0.115 |
| Cc1oncc1S(=O)(=O)N(Cc1cccs1)C[C@@H](O)[C@H](Cc1ccccc1)NC(=O)/C=C/C(C)C(F)(F)F (stereo partly specified) | 13200 | 13200 |
| CC[C@@H](C)CN(C[C@@H](O)[C@H](Cc1ccccc1)NC(=O)C1(C(N)=O)CC1)S(=O)(=O)c1ccc2ncsc2c1 | 0.132 | 0.132 |
| O=C(Cc1cccs1)N[C@@H](Cc1ccccc1)[C@H](O)CN(Cc1cccs1)S(=O)(=O)c1cc(F)c(F)cc1F | 2360 | 2340 |
| O=C(N[C@@H](Cc1ccccc1)[C@H](O)CN(Cc1cccs1)S(=O)(=O)c1cc(F)c(F)cc1F)c1ccnnc1 | 1060 | 1070 |
| CC[C@H](O)CC(=O)N[C@@H](Cc1ccccc1)[C@H](O)CN(CC(C)C)S(=O)(=O)c1ccc(OC)cc1 | 0.37 | 0.372 |
| CC[C@@H](C)CN(C[C@@H](O)[C@H](Cc1ccccc1)NC(=O)[C@@H](O)C(C)C)S(=O)(=O)c1ccc(OC)cc1 | 0.617 | 0.617 |
| COc1cccc(S(=O)(=O)N(C[C@H]2CCCO2)C[C@@H](O)[C@H](Cc2ccccc2)NC(=O)[C@@H]2CN(c3ccccc3)C(=O)O2)c1 | 42 | 41.7 |
| COc1cccc(S(=O)(=O)N(Cc2cccs2)C[C@@H](O)[C@H](Cc2ccccc2)NC(=O)c2cc(O)c(O)c(O)c2)c1 | 1150 | 1150 |
| C[C@H](O)CN(C[C@@H](O)[C@H](Cc1ccccc1)NC(=O)C[C@H]1C=CCC1)S(=O)(=O)c1ccco1 | 259 | 257 |
| CCCCCN(C[C@@H](O)[C@H](Cc1ccccc1)NC(=O)CCC(=O)CC)S(=O)(=O)c1ccc2ncsc2c1 | 1.62 | 1.62 |
| CC(=O)/C=C/C(=O)N[C@@H](Cc1ccccc1)[C@H](O)CN(Cc1cccs1)S(=O)(=O)c1cc(F)c(F)cc1F | 610 | 617 |
| COc1cccc(S(=O)(=O)N(CC2CC2)C[C@@H](O)[C@H](Cc2ccccc2)NC(=O)c2cccc(C)n2)c1 | 14600 | 14500 |

| SMILES | Ki (read-out: Ki) [nM] | Ki (read-out: pKi (converted)) [nM] |
| --- | --- | --- |
| CC[C@@H](C)CN(C[C@@H](O)[C@H](Cc1ccccc1)NC(=O)C1(C(N)=O)CC1)S(=O)(=O)c1ccc(OC)cc1 | 0.21 |  |
| Cc1cccc(OS(=O)(=O)N(C[C@H](C)O)C[C@@H](O)[C@H](Cc2ccccc2)NC(=O)C[C@H]2C=CCC2)c1 | 13600 | 13500 |
| COc1cccc(S(=O)(=O)N(C[C@H](C)O)C[C@@H](O)[C@H](Cc2ccccc2)NC(=O)c2cccc(C)n2)c1 | 4760 | 4790 |
| CC[C@H](C)CN(C[C@@H](O)[C@H](Cc1ccccc1)NC(=O)[C@@H]1CN(c2cccc(C(C)=O)c2)C(=O)O1)S(=O)(=O)c1ccc2ncsc2c1 | 0.019 | 0.0191 |
| COc1ccc(S(=O)(=O)N(CC(C)C)C[C@@H](O)[C@H](Cc2ccccc2)NC(=O)[C@H](C)NC(C)=O)cc1 | 0.117 | 0.117 |
| CC[C@@H](C)CN(C[C@@H](O)[C@H](Cc1ccccc1)NC(=O)C[C@@H](O)CC)S(=O)(=O)c1ccc2ncsc2c1 | 0.067 | 0.0676 |
| COc1ccc(S(=O)(=O)N(CC(C)C)C[C@@H](O)[C@H](Cc2ccccc2)NC(=O)c2cccc(O)c2)cc1 | 0.14 | 0.141 |
| CC[C@@H](C)CN(C[C@@H](O)[C@H](Cc1ccccc1)NC(=O)[C@@H](NC(C)=O)C(C)C)S(=O)(=O)c1ccc2ncsc2c1 | 0.057 | 0.0575 |
| CC[C@H](C)CN(C[C@@H](O)[C@H](Cc1ccccc1)NC(=O)c1cccc(F)c1C)S(=O)(=O)c1ccc2ncsc2c1 | 0.033 | 0.0331 |
| CC(=O)/C=C/C(=O)N[C@@H](Cc1ccccc1)[C@H](O)CN(Cc1cccs1)S(=O)(=O)c1cnoc1C | 26300 | 26300 |
| C/C(=C\C(=O)N(C)[C@@H](Cc1ccccc1)[C@H](O)CN(Cc1cccs1)S(=O)(=O)c1cc(F)c(F)cc1F)C(F)(F)F | 52.6 | 52.5 |
| CC[C@H](C)CN(C[C@@H](O)[C@H](Cc1ccccc1)NC(=O)[C@H](C)NC(C)=O)S(=O)(=O)c1ccc(OC)cc1 | 0.046 | 0.0457 |
| CC(C)CN(C[C@@H](O)[C@H](Cc1ccccc1)NC(=O)[C@@H](O)C(C)C)S(=O)(=O)c1ccc2ncsc2c1 | 0.29 | 0.288 |
| COc1ccc(S(=O)(=O)N(CC(C)C)C[C@@H](O)[C@H](Cc2ccccc2)NC(=O)C2(C(N)=O)CC2)cc1 | 0.173 | 0.174 |
| COc1cccc(S(=O)(=O)N(C[C@H]2CCCO2)C[C@@H](O)[C@H](Cc2ccccc2)NC(=O)[C@@H]2CN(c3cccc(F)c3)C(=O)O2)c1 | 150 | 151 |
| Cc1cccc(C(=O)N[C@@H](Cc2ccccc2)[C@H](O)CN(C[C@H](C)O)S(=O)(=O)c2ccco2)n1 | > 10000 |  |
| CCC(=O)CCC(=O)N[C@@H](Cc1ccccc1)[C@H](O)CN(CC(C)C)S(=O)(=O)c1ccc2ncsc2c1 | 0.12 | 0.12 |
| CCCCCN(C[C@@H](O)[C@H](Cc1ccccc1)NC(=O)C[C@@H](O)CC)S(=O)(=O)c1ccc(OC)cc1 | 0.86 | 0.851 |
| CCC(=O)CCC(=O)N[C@@H](Cc1ccccc1)[C@H](O)CN(CC(C)C)S(=O)(=O)c1ccc(OC)cc1 | 0.24 | 0.24 |
| CCCCCN(C[C@@H](O)[C@H](Cc1ccccc1)NC(=O)c1cccc(O)c1)S(=O)(=O)c1ccc(OC)cc1 | 1.45 | 1.45 |
| CCCCCN(C[C@@H](O)[C@H](Cc1ccccc1)NC(=O)[C@@H](O)C(C)C)S(=O)(=O)c1ccc(OC)cc1 | 2.48 | 2.45 |
